Laboratory results as given in patent publication US20100267561A1, “HERBICIDAL PYRIDAZINONE DERIVATIVES” (priority 2007, published 2010).
Like-named read-outs stand apart in the source and are kept apart here.

Legend:
Type in all cases: in vivo
[1] = system: barnyardgrass (Echinochloa crus-galli); test: Test A pre-/postemergence plant response; settings: Echinochloa crus-galli, 240 h, read-out: Plant response rating, Barnyardgrass; for pest or weed control at 31 g/ha: 31 g ai/ha; for pest or weed control at 125 g/ha: 125 g ai/ha
In short: (§1)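 Seeds were planted in blended loam soil and sand, then treated preemergence by directed soil spray. At that time, emerged plants (one- to two-leaf, 2–10 cm) received postemergence applications of the same surfactant-containing formulation. Injury was assessed visually on a 0–100 scale after approximately 10 days.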

corn (Zea mays) = test: Test A pre-/postemergence plant response; settings: Zea mays, 240 h; for Corn plant response rating (crop injury, 0 = no effect, 100 = complete kill) at 31 g/ha: 31 g ai/ha; for Corn plant response rating (crop injury, 0 = no effect, 100 = complete kill) at 125 g/ha: 125 g ai/ha
In short: as §1

[2] = system: giant foxtail (Setaria faberi); test: Test A pre-/postemergence plant response; settings: Setaria faberi, 240 h, read-out: Plant response rating, Foxtail, Giant; for pest or weed control at 31 g/ha: 31 g ai/ha; for pest or weed control at 125 g/ha: 125 g ai/ha
In short: as §1

[3] = system: large crabgrass (Digitaria sanguinalis); test: Test A pre-/postemergence plant response; settings: Digitaria sanguinalis, 240 h, read-out: Plant response rating, Crabgrass, Large; for pest or weed control at 31 g/ha: 31 g ai/ha; for pest or weed control at 125 g/ha: 125 g ai/ha
In short: as §1

[4] = system: pigweed (Amaranthus retroflexus); test: Test A pre-/postemergence plant response; settings: Amaranthus retroflexus, 240 h, read-out: Plant response rating, Pigweed; for pest or weed control at 31 g/ha: 31 g ai/ha; for pest or weed control at 125 g/ha: 125 g ai/ha
In short: as §1

[5] = system: wheat (Triticum aestivum); test: Test A pre-/postemergence plant response; settings: Triticum aestivum, 240 h, read-out: Plant response rating, Wheat; for plant injury at 31 g/ha: 31 g ai/ha; for plant injury at 125 g/ha: 125 g ai/ha
In short: as §1

[6] = system: barnyardgrass (Echinochloa crus-galli); test: Test B flooded paddy test plant response; settings: Echinochloa crus-galli, read-out: Plant response rating, Barnyardgrass
In short: (§2)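 Rice, umbrella sedge, ducksalad and barnyardgrass at 2-leaf stage; pots flooded to 3 cm, compounds applied into paddy water, depth held throughout. Greenhouse 13 to 15 days, then visual rating vs untreated controls on 0–100 scale (0 no effect, 100 complete control); dash means no test result.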

[7] = system: ducksalad (Heteranthera limosa); test: Test B flooded paddy test plant response; settings: Heteranthera limosa, read-out: Plant response rating, Ducksalad
In short: as §2

rice (Oryza sativa) = test: Test B flooded paddy test plant response; settings: Oryza sativa, read-out: Plant response rating, Rice
In short: as §2

[8] = system: umbrella sedge (Cyperus difformis); test: Test B flooded paddy test plant response; settings: Cyperus difformis, read-out: Plant response rating, Sedge, Umbrella
In short: as §2

[9] = post-emergence, Postemergence, 0 to 100 scale (0 no effect, 100 complete control)
[10] = post-emergence, Postemergence, 0 to 100 scale, 0 no effect, 100 complete control
[11] = pre-emergence, Preemergence, 0 to 100 scale, 0 is no effect, 100 is complete control
[12] = pre-emergence, Preemergence, 0 to 100 scale (0 no effect, 100 complete control)
[13] = Flood (flooded paddy test), 250 g ai/ha, scale 0 to 100, 0 no effect, 100 complete control
[14] = Flood, 62 g ai/ha, scale 0 to 100

Cn1ncc(O)c(-c2nn(-c3ccc(C(F)(F)F)cc3)cc2Br)c1=O [Compound 87, 4-[4-bromo-1-[4-(trifluoromethyl)phenyl]-1H-pyrazol-3-yl]-5-hydroxy-2-methyl-3(2H)-pyridazinone]
pest or weed control at 31 g/ha [1, 9]: 0% | pest or weed control at 125 g/ha [1, 10]: 90% | pest or weed control at 31 g/ha [1, 11]: 0% | pest or weed control at 125 g/ha [1, 12]: 50% | Corn plant response rating (crop injury, 0 = no effect, 100 = complete kill) at 31 g/ha (corn (Zea mays); [9]): 0% | Corn plant response rating (crop injury, 0 = no effect, 100 = complete kill) at 125 g/ha (corn (Zea mays); [10]): 40% | Corn plant response rating (crop injury, 0 = no effect, 100 = complete kill) at 31 g/ha (corn (Zea mays); [11]): 0% | Corn plant response rating (crop injury, 0 = no effect, 100 = complete kill) at 125 g/ha (corn (Zea mays); [12]): 20% | pest or weed control at 31 g/ha [2, 9]: 20% | pest or weed control at 125 g/ha [2, 10]: 80% | pest or weed control at 31 g/ha [2, 11]: 20% | pest or weed control at 125 g/ha [2, 12]: 90% | pest or weed control at 31 g/ha [3, 9]: 10% | pest or weed control at 125 g/ha [3, 10]: 80% | pest or weed control at 31 g/ha [3, 11]: 20% | pest or weed control at 125 g/ha [3, 12]: 70% | pest or weed control at 31 g/ha [4, 9]: 0% | pest or weed control at 125 g/ha [4, 10]: 0% | pest or weed control at 31 g/ha [4, 11]: 0% | pest or weed control at 125 g/ha [4, 12]: 0% | plant injury at 31 g/ha [5, 9]: 20% | plant injury at 125 g/ha [5, 10]: 50% | plant injury at 31 g/ha [5, 11]: 0% | plant injury at 125 g/ha [5, 12]: 20% | pest or weed control at 250 g/ha [6, 13]: 0% | pest or weed control at 62 g/ha [6, 14]: 0% | pest or weed control at 250 g/ha [7, 13]: 0% | pest or weed control at 62 g/ha [7, 14]: 0% | plant injury at 250 g/ha (rice (Oryza sativa); [13]): 0% | plant injury at 62 g/ha (rice (Oryza sativa); [14]): 0% | pest or weed control at 250 g/ha [8, 13]: 0% | pest or weed control at 62 g/ha [8, 14]: 0%
